Target: T1, hM5 (Homo sapiens, UniProt P08912)
T1 construct: expressed in transfected cells
T1 sequence (P08912 1-532): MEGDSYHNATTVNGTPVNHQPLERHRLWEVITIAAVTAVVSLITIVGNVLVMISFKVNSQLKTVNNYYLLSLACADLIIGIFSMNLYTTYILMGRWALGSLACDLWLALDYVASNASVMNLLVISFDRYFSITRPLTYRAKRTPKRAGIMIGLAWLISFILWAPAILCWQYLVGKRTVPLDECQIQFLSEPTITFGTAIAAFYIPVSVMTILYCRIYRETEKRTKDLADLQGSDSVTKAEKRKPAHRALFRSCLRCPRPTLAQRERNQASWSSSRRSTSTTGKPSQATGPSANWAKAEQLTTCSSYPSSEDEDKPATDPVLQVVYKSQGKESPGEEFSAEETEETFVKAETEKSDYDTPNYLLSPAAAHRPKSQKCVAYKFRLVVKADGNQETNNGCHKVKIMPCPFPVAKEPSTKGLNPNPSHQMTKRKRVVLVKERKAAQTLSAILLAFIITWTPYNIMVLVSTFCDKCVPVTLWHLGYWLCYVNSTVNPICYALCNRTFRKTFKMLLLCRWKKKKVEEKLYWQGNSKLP
Test: Calcium mobilization concentration-response (IC50 vs EC80 acetylcholine), CHO hM5
Assay type: cell-based
Settings: CELL LINE hM5; calcium mobilization, EC80 acetylcholine addition; read-out: IC50
Procedure, shortened: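 CHO cells stably expressing hM5, dye-loaded, in HBSS/20 mM HEPES/2.5 mM probenecid, pH 7.4. Compounds were pre-incubated 140 s before an EC80 acetylcholine challenge, with calcium flux read kinetically.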

| Structure (SMILES) | IC50 [nM] |
| --- | --- |
| [2H]C1([2H])Oc2cc(C)c(C3CCN(S(=O)(=O)c4cnn(C)c4C)CC3)cc2OC1([2H])[2H] [Compound 389, 1-((1,5-dimethyl-1H-pyrazol-4-yl)sulfonyl)-4-(7-methyl-2,3-dihydrobenzo[b][1,4]dioxin-6-yl-2,2,3,3-d4)piperidine] | 182 |
| Cc1c(C2CCN(S(=O)(=O)c3cnn(C)c3C)CC2)cn2ncnc2c1F [Compound 264, 6-(1-((1,5-dimethyl-1H-pyrazol-4-yl)sulfonyl)piperidin-4-yl)-8-fluoro-7-methyl-[1,2,4]triazolo[1,5-a]pyridine] | 21 |
